Assays:
[1] = test system: Odontosyllis undecimdonta worm luciferase; assay: Detecting bioluminescence in cold extracts of Odontosyllis undecimdonta worms; type: biochemical; settings: 1 μg in 100 μl tris-buffered saline pH 7.5, aliquots added to cold worm extracts; FIG. 12, FIG. 13
Procedure: Adding 5 ml of phosphate buffer (5 mM sodium phosphate buffer, pH 7.4) to 200 mg of lyophilized worms. Pipetting the mixture into liquid nitrogen to create small drops of frozen material, then grounding them in a mortar. Adding the frozen powder to 15 ml of phosphate buffer (5 mM sodium phosphate buffer, pH 7.4) and incubating for 40 minutes in an ice bath while stirring regularly. Centrifuging the mixture at 40,000 g (4° C.) for 40 min. Collecting the supernatant comprising luciferase, luciferin and oxyluciferin, freezing the cell-free extract and storing at −70° C. […] Extracts of Odontosyllis undecimdonta worms were used as biological samples. […]

[2] = test system: recombinant luciferase Odontosyllis undecimdonta; assay: Detecting luciferase in lysates of mammalian cells comprising recombinant luciferase; settings: 1 μg in 100 μl tris-buffered saline pH 7.5, aliquots added to cell lysates with recombinant luciferase; FIG. 11
Procedure: Recombinant luciferase was obtained from luciferase complementary DNA synthesized as a linear double-stranded DNA fragment (Twist Biosciences, USA). Cloning was performed using the Golden Gate method. Eukaryotic cell expression plasmids were assembled into the plasmid of the MoClo pICH47742 kit as a backbone, and the following parts were cloned in level 0 vectors: cytomegalovirus promoter, luciferase candidate gene, termination codon comprising a part of DNA, and SV40 polyadenylation terminator. HEK293NT cells were transfected with FuGene 6 reagent plasmid (Promega, Fitchburg, Wis., USA) according to the manufacturer's protocol. The transfected cells were grown under standard conditions.
Lysates of mammalian cells comprising recombinant luciferase Odontosyllis undecimdonta were used as biological samples. Cell lysates were obtained as described above in the section “Obtaining native luciferase and recombinant luciferase samples”.

[3] = Storage stability of freeze-dried substrate; type: physicochemical; settings: −20° C.
From the text: This new luciferin isolated by the present inventors has a unique structure that distinguishes it from all previously described natural luciferins. Thus, the basis of the Odontosyllis worm luciferin molecule is a condensed heterocycle—thieno[3,2-f]thiochromene consisting of two six-membered and one five-membered rings. Such complex condensed tricyclic structures have not previously been found as bioluminescent reaction substrates. It is also worth noting that thiopyran is named in the composition of natural bioluminescent substrates for the first time. Odontosyllis worm luciferin is a strongly polar molecule and represents a strong acid, since this molecule comprises three carboxyl substituents and also carries a sulfonic acid residue. Freeze-dried substrate is stored at −20° C. without decrease in activity for at least 30 days, more often at least 60 days, normally at least a year.

[4] = Effect of light on luciferin; type: physicochemical; settings: confirmed experimentally
From the text: Formation of bioluminescence depends on the amount and preservation of luciferase in biological samples.

[5] = test system: highly purified luciferase; assay: In vitro bioluminescence reaction, conversion of luciferin into oxyluciferin with highly purified luciferase; type: biochemical, Odontosyllis undecimdonta; settings: 60 μL pure luciferin fraction, 40 μL tris-buffered saline, 20 μL highly purified luciferase; no luminescence in control tube
Procedure: Each tube contained 60 μL of pure luciferin fraction, 40 μL of tris-buffered saline and 20 μL of highly purified luciferase (see section below) or tris-buffered saline in case of negative control. […] The reaction was monitored by using 5 μl aliquots of the reaction and control mixtures, followed by stopping the reaction in 0, 5, 15, 30, 60, 120, 180, and 300 min by adding 20 μl of methanol and centrifugation, after that, the reversed-phase HPLC was used to analyze the supernatants. A Shim-Pack XR-ODS column (3.0×75 mm, 2.2 μm) was used in combination with a Nexera X2 system (Shimadzu, Japan). Solvent A is a 0.1% formic acid solution, pH 4.9, solvent B is acetonitrile. Elution was carried out in a linear gradient with the solvent B concentration from 1 to 20% (15 min) at a flow rate of 0.7 ml/min. Purified luciferase samples were obtained as a result of sequential purification of an aqueous extract of lyophilized worms: ion-exchange chromatography in a HiTrap Fast Flow column with DEAE-Sepharose (GE Healthcare, Uppsala, Sweden), ultrafiltration in an Amicon® Ultra centrifugal filter (Merck Millipore, Germany) and gel filtration chromatography in a Superdex 200 column ([…]).

| luminescence of biological samples [1] | storage without decrease in activity [3] | effect of light emission, especially the UV part of the spectrum [4] | radiation (luminescence) in the course of the reaction [5] | SMILES | luminescence of biological samples [2] |
| --- | --- | --- | --- | --- | --- |
| detected |  |  |  | O=C(O)C(=O)C1=C(C(=O)O)Cc2c(c(OS(=O)(=O)O)c(O)c3scc(C(=O)O)c23)S1 [pre-luciferin, 7-(carboxycarbonyl)-4-hydroxy-5-(sulfooxy)-9H-thieno[3,2-f]thiochromene-1,8-dicarboxylic acid] |  |
| detected | at least 30 days | degradation and loss of functionality | Radiation was observed | O=C(O)C1=Cc2c(c(OS(=O)(=O)O)c(O)c3scc(C(=O)O)c23)SC1C(=O)O (stereo not drawn) [luciferin, 4-hydroxy-5-(sulfooxy)-7H-thieno[3,2-f]thiochromen-1,7,8-tricarboxylic acid] | detected |

From US20220298540A1, “METHOD AND REAGENTS FOR DETECTING LUCIFERASE ACTIVITY” (OBSCHESATVO S OGRANICHENNOY OTVETSTVENNOSTYU "PLANTA", priority 2019, published 2022)
